Data taken from PubChem BioAssay AID602284 (Broad Institute, 2012).
Activity calls are given as the source filed them.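 Rule for the calls: active = every test run fits a half-maximal inhibitory dose no higher than twice its top dose tested; inconclusive = runs disagree, flat partial inhibition, or poor curve fit; inactive = the rest.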

Target: Cyclin-dependent kinase 5 activator 1 (Homo sapiens) + Cyclin-dependent kinase 5 (Homo sapiens) (UniProt Q15078+Q00535)
Experiment: CDK5/p35 kinase inhibitors, dose response, biochemical, ADP-Glo luminescence, dry powder samples (AID 602284)
Conditions: histone H1 peptide

Cyclin-dependent kinase 5 activator 1 (Homo sapiens) + Cyclin-dependent kinase 5 (Homo sapiens), sequence (Q00535 whole entry, looked up): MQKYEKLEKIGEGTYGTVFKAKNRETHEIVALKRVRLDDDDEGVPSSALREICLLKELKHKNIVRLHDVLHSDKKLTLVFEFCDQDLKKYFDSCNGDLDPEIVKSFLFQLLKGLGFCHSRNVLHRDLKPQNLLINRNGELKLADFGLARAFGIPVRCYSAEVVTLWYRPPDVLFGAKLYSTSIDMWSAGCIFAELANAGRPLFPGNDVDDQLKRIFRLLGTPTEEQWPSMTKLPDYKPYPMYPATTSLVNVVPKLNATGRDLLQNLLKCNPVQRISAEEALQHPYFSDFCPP
Cyclin-dependent kinase 5 activator 1 (Homo sapiens) + Cyclin-dependent kinase 5 (Homo sapiens), sequence (Q15078 whole entry, looked up): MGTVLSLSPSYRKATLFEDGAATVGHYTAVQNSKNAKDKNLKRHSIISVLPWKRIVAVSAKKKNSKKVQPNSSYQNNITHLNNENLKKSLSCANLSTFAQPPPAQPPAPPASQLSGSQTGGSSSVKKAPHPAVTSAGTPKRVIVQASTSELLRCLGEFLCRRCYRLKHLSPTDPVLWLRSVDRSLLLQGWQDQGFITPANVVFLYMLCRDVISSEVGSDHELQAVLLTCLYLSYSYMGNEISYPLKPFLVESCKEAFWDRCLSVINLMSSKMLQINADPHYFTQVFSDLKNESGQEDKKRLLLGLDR

| activity change, negative = inhibition (at 30 µM (top of the series)) | Structure (SMILES) | further results |
| --- | --- | --- |
| inactive | COCCC(=O)N1CCN(c2ccccn2)CC1 | – |
| inactive | CCOc1cc(C(=O)N2CCN(c3ccccn3)CC2)cc(OCC)c1OCC | – |
| inactive | COc1ccc(C(=O)N2CCN(c3ccccn3)CC2)cc1 | – |
| inactive | CCCn1c(NC(=O)c2ccc(OC)c(S(=O)(=O)N3CCCC3)c2)nc2ccccc21 | – |
| inactive | COc1ccnc(N2CCN(C(=O)c3ccc(Cl)cc3)CC2)c1 | – |
| inactive | N#Cc1cccnc1N1CCN(C(=O)c2ccc(Cl)cc2)CC1 | – |
| inactive | Cc1cccc(N2CCN(C(=O)c3ccc(Cl)cc3)CC2)n1 | – |
| – | c1ccc(N2CCNCC2)nc1 | activity change, negative = inhibition (at 0.38 µM (top of the series)): inactive |
| inactive | O=C(C1CCCCC1)N1CCN(c2ccccn2)CC1 | – |
| inactive | Cc1ccc(C(=O)N2CCN(c3ccccn3)CC2)cc1 | – |
| inactive | N#Cc1ccc(C(=O)N2CCN(c3ccccn3)CC2)cc1 | – |
| inactive | COc1cccc(C(=O)N2CCN(c3ccccn3)CC2)c1 | – |
| inactive | O=C(c1cccc(Cl)c1)N1CCN(c2ccccn2)CC1 | – |
| inactive | O=C(c1ccc(Cl)cc1)N1CCN(c2ncccc2C(F)(F)F)CC1 | – |
| inactive | CCCCC(=O)N1CCN(c2ccccn2)CC1 | – |
| inactive | O=C(c1ccc(Cl)cc1)N1CCN(c2ccc(C(F)(F)F)cn2)CC1 | – |
| inactive | COc1cc(C(=O)N2CCN(c3ccccn3)CC2)cc(OC)c1OC | – |

| activity change, negative = inhibition (at 30 µM (top of the series)) | Structure (SMILES) | further results |
| --- | --- | --- |
| – | CC(C)(C)n1c(NC(=O)c2cccc(S(C)(=O)=O)c2)nc2ccccc21 | AC50: 12.3 µM |
| inactive | O=C(c1ccc(F)cc1)N1CCN(c2ccccn2)CC1 | – |
| inactive | O=C(c1ccccc1Cl)N1CCN(c2ccccn2)CC1 | – |
| inactive | COc1cccnc1N1CCN(C(=O)c2ccc(Cl)cc2)CC1 | – |
| inactive | Cc1ccc(N2CCN(C(=O)c3ccc(Cl)cc3)CC2)nc1 | – |
| – | CCn1c(NC(=O)c2cccc(S(=O)(=O)NC)c2)nc2ccccc21 | AC50: 29.1 µM |
| inactive | O=C(c1ccc(Cl)cc1)N1CCN(c2ccccn2)CC1 | – |
| inactive | O=C(c1ccc(Cl)cc1)N1CCN(c2cccc(C(F)(F)F)n2)CC1 | – |
| – | CCCn1c(NC(=O)c2cccc(S(=O)(=O)N(C)C)c2)nc2ccccc21 | AC50: 10.2 µM |
| inactive | CC(C)C(=O)N1CCN(c2ccccn2)CC1 | – |
| inactive | N#Cc1ccc(N2CCN(C(=O)c3ccc(Cl)cc3)CC2)nc1 | – |
| inactive | CCCn1c(NC(=O)c2ccc(Cl)c(S(=O)(=O)N3CCCC3)c2)nc2ccccc21 | – |
| inactive | Cc1ccnc(N2CCN(C(=O)c3ccc(Cl)cc3)CC2)c1 | – |
| – | CCCn1c(NC(=O)c2cccc(S(=O)(=O)N3CCCCC3)c2)nc2ccccc21 | AC50: 13.5 µM |
| – | CCCn1c(NC(=O)c2cccc(S(=O)(=O)N(CC)CC)c2)nc2ccccc21 | AC50: 2.95 µM |
| – | O=C(c1ccccc1)N1CCN(c2ccccn2)CC1 | activity change, negative = inhibition (at 10 µM (top of the series)): inactive |
| inactive | COc1cc(C(=O)N2CCN(c3ccccc3)CC2)cc(OC)c1OC | – |
